Structures are written as SMILES. Where two headings read alike, the source gives them in different places. Where only a bound is given, the exact number is not on record here.

Here are results for two molecules from US10081606B2, “Heteroaryl compounds and uses thereof” (Celgene CAR LLC, priority 2010, dated 2018).

One experiment addresses pEGFR in H1975 cells (Homo sapiens (Human), UniProt P00533, L858R/T790M). Conditions: 500 nM for 1 hr, 0-24 hr.
For experiment [1], the target named is EGFR delE746-A750 (HCC827 cells) (Homo sapiens (Human), UniProt P00533, DEL746-750). The experiment in a line: EGFR signaling immunoblot (1 hr) in HCC827 cells. Type of experiment: cell-based. Conditions: signaling EC50, WT (A431) vs HCC827. The protocol:
(§1) A431 human epidermoid carcinoma, H1975 human NSCLC and HCC827 human NSCLC adenocarcinoma cells were obtained from the American Type Culture Center (Manassas, Va.). A431 cells were grown in DMEM (Invitrogen, Carlsbad, Calif.) supplemented with 10% FBS (HyClone, South Logan, Utah) and 1% Penicillin-Streptomycin (P/S, Lonza, Walkersville, Md.).
(§2) All primary antibodies were obtained from Cell Signaling (Danvers, Mass.) and used at 1:1000. Secondary antibodies were used at 1:10,000. Goat anti-mouse IgG IRDye 800CW antibody was obtained from LiCor Biosciences (Lincoln, Nebr.) and goat anti-rabbit IgG Alexa Fluor 680 was obtained from Invitrogen.
(§3) Cells were grown in 12-well plates (Corning, Coring, N.Y.) to 90% confluence and then incubated in low-serum (0.1% FBS) media for 16-18 hr. […] A431 cells were then stimulated with 50 ng/ml EGF (Peprotech, Rocky Hill, N.J.) for 15 min. After treatment, cell monolayers were washed with cold PBS (Invitrogen) and immediately lysed by scrapping into 60 uL cold Cell Extraction Buffer (Invitrogen) supplemented with Complete Protease inhibitors (Roche, Indianapolis, Ind.) and PhosphoSTOP (Roche) phosphatase inhibitors.
(§4) Phospho-protein signals were quantitated using Odyssey Infrared Imaging (Li-Cor Biosciences).
(§5) Blots were normalized as indicated above. […]

A further experiment concerns the target EGFR T790M/L858R (Homo sapiens (Human), UniProt P00533, L858R/T790M). Conditions: for covalent modification of EGFR T790M/L858R: MS analysis.
Experiment [2] concerns H1975 cells (EGFR L858R/T790M). The experiment in a line: Cell proliferation (CellTiter Glo, 72 hr), H1975. Type of experiment: cell-based, human. Conditions: for GI50: Homo sapiens, NCI-H1975; for Ratio WT/mutant: proliferation GI50, WT (A431) vs H1975. The protocol:
as §1
(§6) Growth inhibition (GI50) values were determined by Graph Pad Prism.

Experiment [3] deals with EGFR L858R/T790M (H1975 cells) (Homo sapiens (Human), UniProt P00533, L858R/T790M). As to the kind of experiment: EGFR signaling immunoblot (1 hr) in H1975 cells. Type of experiment: cell-based. Conditions: for Ratio WT/mutant: signaling EC50, WT (A431) vs H1975. As to the method:
as §1, §2, §3, §4
Blots were normalized as indicated above. […] Normalized data was fitted using a sigmoidal curve analysis program (Graph Pad Prism version 5) with variable Hill slope to determine the EC50 values.

Experiment [4] concerns HCC827 cells (EGFR delE746-A750). The experiment in a line: Cell proliferation (CellTiter Glo, 72 hr), HCC827. Type of experiment: cell-based, human. Particulars: for GI50: Homo sapiens; for Ratio WT/mutant: proliferation GI50, WT (A431) vs HCC827. The protocol: as §1, §6
Another experiment has as its system A431 cells (WT EGFR). The experiment in a line: Cell proliferation (CellTiter Glo, 72 hr), A431. Type of experiment: cell-based. Particulars: Homo sapiens, A-431. As to the method:
as §1, §6

The next experiment addresses WT EGFR (A431 cells) (Homo sapiens (Human), UniProt P00533). As to the kind of experiment: EGFR signaling immunoblot (1 hr) in A431 cells. Type of experiment: cell-based. The protocol:
as §1, §2, §3, §4, §5

Where [5] appears, read: H1975 cells, 72 hr, read-out: H1975 GI50.
The mark [6] stands for this setting: HCC827 cells, 72 hr, read-out: HCC827 GI50.
The mark [7] stands for this setting: A431 cells, 72 hr, read-out: WT EGFR GI50.

As for `C=CC(=O)Nc1cccc(Nc2nc(Nc3ccccc3OC)ncc2C(F)(F)F)c1` [Compound I-1, N-(3-(2-(2-methoxyphenylamino)-5-(trifluoromethyl)pyrimidin-4-ylamino)phenyl)acrylamide], the “duration of action after washout (pEGFR inhibition)” value at pEGFR in H1975 cells is recorded as “prolonged duration of action”. Moreover, the “Ratio WT/mutant” value in experiment [1] was >50; in experiment [2] it was >10; in experiment [3], >50; in experiment [4] it was >20. Moreover, on EGFR T790M/L858R (10-fold excess of compound), the “time to complete modification of EGFR T790M/L858R” value is ≤ 30 min. In addition, the “mass shift as percent of compound mass” value on EGFR T790M/L858R (10-fold excess of compound, MALDI) stood at 113%. Further, on EGFR T790M/L858R, the “covalent modification of EGFR T790M/L858R” value is listed as “completely modifies”. Moreover, the GI50 was 100 to 500 nM in experiment [2] (setting [5]); 100 to 500 nM in experiment [2] (Table 2, H1975 cells (L858R/T790M), read-out: Comparative GI50, H1975); 10 to 100 nM in experiment [4] (setting [6]); 10 to 100 nM in experiment [4] (Table 2, HCC827 cells (delE746-A750), read-out: Comparative GI50, HCC827); > 1000 nM in the experiment with A431 cells (WT EGFR) (setting [7]); > 1000 nM with A431 cells (WT EGFR) (Table 2, A431 cells (WT EGFR), read-out: Comparative GI50, A431).
Regarding `C=CC(=O)Nc1cccc(Oc2nc(Nc3ccc(OC)c(OC)c3OC)ncc2Cl)c1` [Compound I-7, N-(3-(5-chloro-2-(2,3,4-trimethoxyphenylamino)pyrimidin-4-yloxy)phenyl)acrylamide], the “covalent modification of EGFR T790M/L858R” value at EGFR T790M/L858R is “covalently modify”. Further, the figures for the 50% growth inhibitory concentration (GI50) (in experiment [2] (setting [5]); in experiment [4] (setting [6]); with A431 cells (WT EGFR) (setting [7])) were 100 to 500 nM, 100 to 500 nM and > 1000 nM, respectively. Further, the results for the “Ratio WT/mutant” value in experiment [2], in experiment [3] and in experiment [4] were >10, >50 and >15, respectively. The “inhibition of pEGFR and downstream S6 Ribosomal protein in H1975 cells” value in experiment [3] (H1975 vs A431, FIG. 1 and 2) is “mutant selective”. Moreover, the “WT-EGFR sparing in A431 cells (pEGFR, pS6)” value at WT EGFR (A431 cells) is “completely WT-EGFR sparing”.
